# Tested on: SARS-CoV-2
# Test: Phase IIa double-blind placebo-controlled study, camostat mesylate 200 mg four times daily for seven days: viral load (log10) by COVID-19 RT-PCR of nasopharyngeal swab and saliva
# Type: in vivo
# Details: for viral load, Fitzmaurice mixed model, Common baseline: day 0; for viral load change Effect (camostat vs placebo), Fitzmaurice mixed model, visit 2 / viral load, Fitzmaurice mixed model, visit 2 / viral load, Fitzmaurice mixed model, visit 2 change: day 2; for viral load change Effect (camostat vs placebo), Fitzmaurice mixed model, visit 3(D4) / viral load, Fitzmaurice mixed model, visit 3(D4) / viral load, Fitzmaurice mixed model, visit 3(D4) change: day 4; for viral load change Effect (camostat vs placebo), Fitzmaurice mixed model, visit 4(D6) / viral load, Fitzmaurice mixed model, visit 4(D6) / viral load, Fitzmaurice mixed model, visit 4(D6) change: day 6
compound,measurement,setting,value
"CN(C)C(=O)COC(=O)Cc1ccc(OC(=O)c2ccc(NC(=N)N)cc2)cc1 [camostat, 4-[[4-[(Aminoiminomethyl)amino]benzoyl]oxy]benzeneacetic acid 2-(dimethylamino)-2-oxoethyl ester]","viral load, Fitzmaurice mixed model, Common baseline",N gene,"6.5 (6, 6.9) ^ log10"
same,"viral load change Effect (camostat vs placebo), Fitzmaurice mixed model, visit 2",N gene,"−0.06 (−0.83, 0.7) log10"
same,"viral load, Fitzmaurice mixed model, visit 2",N gene,"5.3 (4.6, 5.9) log10"
same,"viral load, Fitzmaurice mixed model, visit 2 change",N gene,"−1.2 (−1.8, −0.6) log10"
same,"viral load change Effect (camostat vs placebo), Fitzmaurice mixed model, visit 3(D4)",N gene,"−0.74 (−1.51, 0.03) log10"
same,"viral load, Fitzmaurice mixed model, visit 3(D4)",N gene,"4.4 (3.8, 5.1) log10"
same,"viral load, Fitzmaurice mixed model, visit 3(D4) change",N gene,"−2 (−2.6, −1.5) log10"
same,"viral load change Effect (camostat vs placebo), Fitzmaurice mixed model, visit 4(D6)",N gene,"−0.23 (−1.4, 0.94) log10"
same,"viral load, Fitzmaurice mixed model, visit 4(D6)",N gene,"2.8 (2, 3.7) ^ log10"
same,"viral load, Fitzmaurice mixed model, visit 4(D6) change",N gene,"−3.6 (−4.5, −2.8) log10"
same,"change in viral load from baseline, Mean","N gene, visit 1 (day 0)",0.00 log10
same,"change in viral load from baseline, Median","N gene, visit 1 (day 0)",0.00 log10
same,viral load (log10) Mean,"N gene, visit 1 (day 0)",6.35 log10
same,viral load (log10) Median,"N gene, visit 1 (day 0)",6.47 log10
same,"change in viral load from baseline, Mean","N gene, visit 2 (day 2)",−1.15 log10
same,"change in viral load from baseline, Median","N gene, visit 2 (day 2)",−1.14 log10
same,viral load (log10) Mean,"N gene, visit 2 (day 2)",4.89 log10
same,viral load (log10) Median,"N gene, visit 2 (day 2)",4.49 log10
same,"change in viral load from baseline, Mean","N gene, visit 3 (day 4)",−2.07 log10
same,"change in viral load from baseline, Median","N gene, visit 3 (day 4)",−2.32 log10
same,viral load (log10) Mean,"N gene, visit 3 (day 4)",4.35 log10
same,viral load (log10) Median,"N gene, visit 3 (day 4)",4.56 log10
same,"change in viral load from baseline, Mean","N gene, visit 4 (day 6)",−3.41 log10
same,"change in viral load from baseline, Median","N gene, visit 4 (day 6)",−3.07 log10
same,viral load (log10) Mean,"N gene, visit 4 (day 6)",2.58 log10
same,viral load (log10) Median,"N gene, visit 4 (day 6)",2.48 log10
same,"change in viral load from baseline, Mean","N gene, visit 5 (day 14)",−5.21 log10
same,"change in viral load from baseline, Median","N gene, visit 5 (day 14)",−5.52 log10
same,viral load (log10) Mean,"N gene, visit 5 (day 14)",1.21 log10
same,viral load (log10) Median,"N gene, visit 5 (day 14)",0.12 log10
same,"change in viral load from baseline, Mean","N gene, visit 6 (day 28)",−6.33 log10
same,"change in viral load from baseline, Median","N gene, visit 6 (day 28)",−6.60 log10
same,viral load (log10) Mean,"N gene, visit 6 (day 28)",0.05 log10
same,viral load (log10) Median,"N gene, visit 6 (day 28)",0.00 log10
same,"change in viral load from baseline, Mean","ORF1ab gene, visit 1 (day 0)",0.00 log10
same,"change in viral load from baseline, Median","ORF1ab gene, visit 1 (day 0)",0.00 log10
same,viral load (log10) Mean,"ORF1ab gene, visit 1 (day 0)",6.17 log10
same,viral load (log10) Median,"ORF1ab gene, visit 1 (day 0)",6.50 log10
same,"change in viral load from baseline, Mean","ORF1ab gene, visit 2 (day 2)",−1.17 log10
same,"change in viral load from baseline, Median","ORF1ab gene, visit 2 (day 2)",−1.04 log10
same,viral load (log10) Mean,"ORF1ab gene, visit 2 (day 2)",4.71 log10
same,viral load (log10) Median,"ORF1ab gene, visit 2 (day 2)",4.20 log10
same,"change in viral load from baseline, Mean","ORF1ab gene, visit 3 (day 4)",−2.14 log10
same,"change in viral load from baseline, Median","ORF1ab gene, visit 3 (day 4)",−2.33 log10
same,viral load (log10) Mean,"ORF1ab gene, visit 3 (day 4)",4.10 log10
same,viral load (log10) Median,"ORF1ab gene, visit 3 (day 4)",4.41 log10
same,"change in viral load from baseline, Mean","ORF1ab gene, visit 4 (day 6)",−3.39 log10
same,"change in viral load from baseline, Median","ORF1ab gene, visit 4 (day 6)",−3.41 log10
same,viral load (log10) Mean,"ORF1ab gene, visit 4 (day 6)",2.42 log10
same,viral load (log10) Median,"ORF1ab gene, visit 4 (day 6)",2.47 log10
same,"change in viral load from baseline, Mean","ORF1ab gene, visit 5 (day 14)",−5.19 log10
same,"change in viral load from baseline, Median","ORF1ab gene, visit 5 (day 14)",−5.61 log10
same,viral load (log10) Mean,"ORF1ab gene, visit 5 (day 14)",1.04 log10
same,viral load (log10) Median,"ORF1ab gene, visit 5 (day 14)",0.00 log10
same,"change in viral load from baseline, Mean","ORF1ab gene, visit 6 (day 28)",−6.15 log10
same,"change in viral load from baseline, Median","ORF1ab gene, visit 6 (day 28)",−6.57 log10
same,viral load (log10) Mean,"ORF1ab gene, visit 6 (day 28)",0.05 log10
same,viral load (log10) Median,"ORF1ab gene, visit 6 (day 28)",0.00 log10
same,"viral load, Fitzmaurice mixed model, Common baseline",ORF1ab,"6.3 (5.8, 6.8) log10"
same,"viral load change Effect (camostat vs placebo), Fitzmaurice mixed model, visit 2",ORF1ab,"0.28 (−0.57, 1.13) log10"
same,"viral load, Fitzmaurice mixed model, visit 2",ORF1ab,"5 (4.3, 5.8) log10"
same,"viral load, Fitzmaurice mixed model, visit 2 change",ORF1ab,"−1.2 (−1.9, −0.6) log10"
same,"viral load change Effect (camostat vs placebo), Fitzmaurice mixed model, visit 3(D4)",ORF1ab,"−0.46 (−1.3, 0.39) log10"
same,"viral load, Fitzmaurice mixed model, visit 3(D4)",ORF1ab,"4.2 (3.5, 4.9) log10"
same,"viral load, Fitzmaurice mixed model, visit 3(D4) change",ORF1ab,"−2.1 (−2.7, −1.5) log10"
same,"viral load change Effect (camostat vs placebo), Fitzmaurice mixed model, visit 4(D6)",ORF1ab,"−0.09 (−1.27, 1.08) log10"
same,"viral load, Fitzmaurice mixed model, visit 4(D6)",ORF1ab,"2.6 (1.8, 3.5) log10"
same,"viral load, Fitzmaurice mixed model, visit 4(D6) change",ORF1ab,"−3.6 (−4.5, −2.7) log10"
same,"viral load, Fitzmaurice mixed model, Common baseline",S gene,"5 (4.1, 5.9) log10"
same,"viral load change Effect (camostat vs placebo), Fitzmaurice mixed model, visit 2",S gene,"0.36 (−0.72, 1.43) log10"

# — patent publication US20230226005A1, “Methods of Treating, Ameliorating, Shortening Duration, and/or Reversing Symptoms and/or Complications of a Coronavirus Infection” (Yale University, priority 2020, published 2023)
